Drawing on paper PMC8989696, “Characterization of furathiocarb metabolism in in-vitro human liver microsomes and recombinant cytochrome P450 enzymes” (Toxicology Reports, 2022), this text covers IC50 and Km for one compound.

Molecules are shown by their SMILES.

Holding throughout (format): in vitro ADME
Data set [1] relates to human CYP activities other than CYP1A2, CYP2B6, CYP2C9, CYP2C19. In words: N-in-one CYP inhibition assay, pooled human hepatic microsomes, other CYP activities. The following applies: pooled human liver microsomes (n = 10), pH 7.4, furathiocarb 1–100 µM, read-out: Other IC50 values (remaining CYP activities of N-in-one assay). As for the experimental part: (§1) N-in-one (“cocktail”) assay for measuring major CYP activities simultaneously, [55], [56] was employed to investigate human CYP-furathiocarb inhibitory interactions in pooled human hepatic microsomes. Furathiocarb (ﬁnal concentrations in the incubation mixture were 1, 5, 25, 50, and 100 µM) was added to the incubation mixture. The N-in-one was used earlier for the study of pesticide interactions and the details of the incubations with furathiocarb are described in Supplementary materials.
(§2) The kinetic parameters Vmax and Km were calculated by nonlinear regression. Bivariate linear Pearson’s correlation coefﬁcients (r2) were calculated between metabolite formations and model activities in the livers. GraphPad Prism 9 Software (Inc., San Diego, CA) Prism 9.0.0 (San Diego, CA) was used for kinetic parameters and correlation coefﬁcients analysis. The IC50 values were determined by linear regression analysis using OriginPro 2020 (MicroCal Software, Inc., Northampton, MA.
(§3) N-in-one assay was performed to investigate human CYP-furathiocarb inhibitory interactions. Furathiocarb (ﬁnal concentrations in the incubation mixture were 1, 5, 25, 50, and 100 µM) was added to the incubation mixture.
(§4) The N-in-one assay, analytical method and authentic standards have been described previously (Abass and Pelkonen 2013; Tolonen et al. 2007; Turpeinen et al. 2005). […]

Data set [2] addresses T1, CYP2B6 (Homo sapiens, UniProt P20813).
T1 sequence (P20813 1-491): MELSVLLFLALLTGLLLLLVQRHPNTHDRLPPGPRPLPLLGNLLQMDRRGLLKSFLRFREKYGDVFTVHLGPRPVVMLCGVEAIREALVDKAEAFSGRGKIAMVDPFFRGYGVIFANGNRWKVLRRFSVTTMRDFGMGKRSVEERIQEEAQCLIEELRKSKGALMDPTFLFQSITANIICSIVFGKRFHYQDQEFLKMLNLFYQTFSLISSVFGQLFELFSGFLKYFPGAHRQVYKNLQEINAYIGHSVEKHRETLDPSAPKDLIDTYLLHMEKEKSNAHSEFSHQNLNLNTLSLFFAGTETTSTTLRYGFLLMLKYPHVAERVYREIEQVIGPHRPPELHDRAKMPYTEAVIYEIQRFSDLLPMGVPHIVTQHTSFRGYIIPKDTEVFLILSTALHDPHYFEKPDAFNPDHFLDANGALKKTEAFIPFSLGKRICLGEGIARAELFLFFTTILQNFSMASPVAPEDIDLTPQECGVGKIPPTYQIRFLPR
In words: biochemical. More on the design: from tissue; host or cells: pooled human liver microsomes (n = 10 donors). As for the experimental part:
as §1, §2, §3, §4

The target of data set [3] is T1, CYP2B6. In words: in vitro. More on the design: purchased BD Biosciences Discovery Labware (Bedford, MA); host or cells: baculovirus-infected insect cells. The following applies: pH 7.4, Carbofuran metabolic pathway, rCYP2B6. As for the experimental part: Furathiocarb was incubated with recombinant CYPs (rCYP). The incubation mixture contained rCYPs (50 pmol CYP per ml), 100 µM furathiocarb, and 1 mM NADPH in 200 µl 0.1 M phosphate buffer (pH 7.4). Incubation procedures and chromatographic separation are presented in Supplementary materials.
Enzyme kinetic parameters of both the microsomal samples and rCYP enzymes were measured. The incubation mixture contained furathiocarb (2.5, 10, 25, 50, 150 and 300 µM). Incubation times were 20 and 30 min for microsomal samples and rCYPs, respectively. Otherwise incubation mixtures and methods were the same as in metabolite identification. The rate of sum of furathiocarb metabolite formation was linear at least up to 0.15 mg protein/ml and 30 min incubation time in the standard experimental conditions.
To measure the main furathiocarb metabolites of recombinantly expressed CYP enzymes (rCYPs), the standard incubation mixture (200 µl) contained 0.1 M phosphate buffer (pH 7.4), 1 mM NADPH, 100 µM […], and rCYPs (50 pmol CYP per ml). Incubations were carried out according to the manufacturer’s instructions. Shortly, the reaction was started by adding recombinant enzymes to the preincubated eaction mixture (2 min at +37 ◦C), mixed gently and incubated for 30 min at +37 ◦C in an incubator block without agitation. […]

As usually defined, the IC50 is the concentration at which inhibition is half-maximal. The term Km denotes the substrate concentration at which the rate is half of its maximum. Take `CCCCOC(=O)N(C)SN(C)C(=O)Oc1cccc2c1OC(C)(C)C2` [furathiocarb, Furathiocarb]: in data set [1], the IC50 at 20 min is greater than 100 µM. The compound further returned an IC50 in data set [2] of 16.5 to 18.5 µM. For the same compound, the Km at 30 min in data set [3] came out at 9.7 ± 3.9 µM.
